Data reported in patent US20230172901A1, “COMPOSITIONS AND METHODS FOR THE PROPHYLAXIS AND TREATMENT OF FIBROTIC AND INFLAMMATORY CONDITIONS” (GRETALS AUSTRALIA PTY LTD, priority 2020, published 2023).
Entries after “also recorded” stand apart in the source; their conditions may differ.

What was measured:
[1] = test system: sheep model for pulmonary fibrosis, bleomycin-injured lung segments; assay: Example 2: Masson's trichrome assay of connective tissue content; format: in vivo
Excerpt: In this study, a total of 10 sheep were used. Fibrosis in two lung segments of each sheep in a similar manner as performed in Example 1 herein. Using this procedure (as detailed further below) the fibrosis was confined to small, isolated regions in the lungs leaving the remaining 90-95% of the healthy unaffected lungs to undertake normal respiratory function.
All sheep (n=10) in the study were challenged with 2 single doses of bleomycin (3 units) per lung segment, a fortnight apart and the animals were kept for a little over 5 weeks after the final bleomycin dose. Bleomycin is a well-known agent for inducing fibrosis in the lungs. […]
The degree of fibrosis was quantified by assessing the changes in overall connective tissue content within the parenchymal tissue using methods known to the skilled person. […] The images were then analysed using Image-Pro® Plus (Version 6.3 for Windows, Media Cybernetics, Bethesda, Md., USA) using the ‘colour selector’ tool to measure the area of blue-stained tissues (collagen and other connective tissues) within each field of view. […] The fraction of blue stained tissue area was expressed as a percentage per total field area (percentage of blue stained tissue area per total field area). […]

[2] = test system: sheep model of lung disease, bleomycin-induced lung damage; assay: Example 1: bleomycin sheep pulmonary model, lung function, inflammation and fibrosis (3 sheep); format: in vivo
Excerpt: In animal models, bleomycin is the most widely used agent to characterise pulmonary fibrosis. In the sheep model, intratracheal administrations of two doses of bleomycin is used to induce fibrosis in the lung parenchyma. The overall study protocol is shown at FIG. 1.
For this example, three female merino sheep aged between 9 months and 1 year were utilised. Animals were housed indoors and received anthelminthic to treat for any existing parasitic disease. The sheep were judged to be free from significant pulmonary disease on the basis of clinical examination before the commencement of experiments and on inspection of gross pathology at autopsy. The Animal Experimentation Ethics Committee of the University of Melbourne, which adheres to the Australian Code of Practice for the care and use of laboratory animals for scientific purposes, approved all experimental procedures outlined below.
Bleomycin sulphate was made up at a concentration of 0.6 U bleomycin/mL saline and administered to the left and right caudal lobes at a rate of 3 U per segment to cause injury to the tissue and trigger fibrosis. For the left caudal lobe, 7 mg of pinocembrin in 10% DMSO was administered to test the efficacy of pinocembrin in the treatment or prevention of bleomycin-induced fibrosis. For the right caudal lobe injury was induced by bleomycin, and DMSO alone administered such that any differential effects between the left and right caudal lobes could be attributed to the pinocembrin.
A saline solution was administered to the right medial lobe, as a sham treatment.
Each of the bleomycin, bleomycin/pinocembrin, and saline compositions was administered via the biopsy port of a fibre-optic bronchoscope to the appropriate lung segments as a 5 ml bolus.
Timing of the administration of the various compositions is summarised at FIG. 1, with all three sheep euthanized at week 12.
The sheep were euthanized by an intravenous overdose of barbiturate (Lethabarb, Veterinary Clinic, University of Melbourne, Werribee, Australia) at week 12 as outlined in FIG. 1 for tissue collection and analysis.
Following euthanasia, the lungs were removed and targeted lung segments identified and carefully dissected free from surrounding tissue. Individual segments were then inflated with a 1:1 mixture of OCT and sterile PBS solution. […]
Segmental compliance (Cseg) was assessed using pressure responses to flow in the different segments as indicated FIG. 2 in awake, consciously breathing sheep using a wedged-bronchoscope technique. […]
Segmental lung compliance was calculated. […] Segmental compliance was then calculated from the pressure-flow decay curve generated from this procedure. The process was repeated 3 times for each segment and expressed as an average value for Cseg. […]

[3] = 7 mg pinocembrin in 10% DMSO, 4 weekly doses, left vs right caudal segment

SMILES: O=C1CC(c2ccccc2)Oc2cc(O)cc(O)c21 (stereo not drawn) [pinocembrin, 5,7-Dihydroxy-2-Phenyl-2,3-Dihydro-4H-Chromen-4-One]
- sheep with decreased percentage blue values ([1]; individual sheep data, vs bleomycin injury without pinocembrin, 10 sheep): nine out of ten
- percentage blue staining, Masson's Trichrome stained connective tissue ([1]; vs bleomycin-infused lung without pinocembrin, 4 weekly treatments of 7 mg, n=10 sheep): significantly reduces; also recorded: significant decrease; also recorded: significantly lower
- beneficial effect of pinocembrin (significance, number of sheep) [2]: statistically significant and noted in all three sheep
- lung function ([2]; 7 mg pinocembrin in 10% DMSO, 4 weekly doses, bleomycin-injured left caudal segment vs right caudal segment (bleomycin + DMSO)): improvement
- fibrosis [2, 3]: decrease
- inflammation [2, 3]: decrease
